Experiment [1] deals with J774.1. The experiment can be described thus: Anti-inflammatory activity against mouse J774A.1 macrophage assessed as reduction in LPS-induced LDH release at 10 uM incubated for 1 hr in presence of nigericin by LDH assay. Type of experiment: functional, cell-based. Background: Release of lactate dehydrogenase indicates damage to the cell membrane.
Experiment [2] has as its system J774.1. The experiment can be described thus: Anti-inflammatory activity against mouse J774A.1 macrophage assessed as reduction in LPS-induced LDH release incubated for 1 hr in presence of nigericin by LDH assay. Type of experiment: functional, cell-based. Conditions: J774.1, 1 h.
The target in experiment [3] is Replicase polyprotein 1ab (Severe acute respiratory syndrome coronavirus 2) (UniProt P0DTD1). The experiment can be described thus: Inhibition of SARS-CoV-2 MPro at 10 uM incubated for 5 mins by FRET assay.
In experiment [4] the test system is J774.1. The experiment can be described thus: Anti-inflammatory activity against mouse J774A.1 macrophage assessed as reduction in LPS-induced pyroptosis cells at 0.625 to 2.5 uM incubated for 1 hr in presence of nigericin by PI/Hoechst 33342 staining based inverted fluorescence microscopic analysis. Type of experiment: functional, cell-based. Particulars: dose 0.625-2.5 µM, DDE = dose-dependent effect.

Experiment [5] concerns J774.1. Nature of the experiment: Anti-inflammatory activity against mouse J774A.1 macrophage assessed as reduction in LPS-induced cleaved casp-1 expression at 0.625 to 2.5 uM incubated for 1 hr in presence of nigericin by Western blot analysis. Type of experiment: functional, cell-based. Particulars: dose 0.625-2.5 µM.
The test system of experiment [6] is J774.1. The experiment can be described thus: Anti-inflammatory activity against mouse J774A.1 macrophage assessed as reduction in LPS-induced IL-1beta maturation at 0.625 to 2.5 uM incubated for 1 hr in presence of nigericin by Western blot analysis. It is filed as functional, cell-based. Conditions: dose 0.625-2.5 µM.

Structures are written as SMILES. Calls of active or inactive are those of the source. No cut-off for these calls is given here.

Take `CC(C)=CCc1cc(/C=C2\OC(=O)C(c3cc(CC=C(C)C)c(O)cc3O)=C2O)ccc1O`: the inhibition result in experiment [1] and in experiment [3] was “Active” each time. Further, in experiment [2], the concentration for half-maximal inhibition (IC50) (usually the concentration that inhibits the measured activity by half) worked out at 3 µM.
As for `CC(C)=CCc1cc(/C=C2\OC(=O)C(c3ccc(O)cc3O)=C2O)ccc1O`, the inhibition entry in experiment [1] and in experiment [3] was “Active” in each case. Also, the IC50 in experiment [2] was found to be 2.4 µM.
Take `CC(C)=CCc1cc(C2=C(O)/C(=C/c3ccc4c(c3)C[C@H](C(C)(C)O)O4)OC2=O)c(O)cc1O`: the inhibition entry in experiment [1] and in experiment [3] was “Active” throughout. Moreover, in experiment [2], the IC50 was determined as 4.9 µM.
As for `CC(C)=CCc1cc(/C=C2\OC(=O)C(c3cc4c(cc3O)OC(C)(C)CC4)=C2O)ccc1O`, the inhibition entry in experiment [1] and in experiment [3] was “Active” each time. Moreover, the IC50 in experiment [2] amounted to 0.8 µM.
On to `CC(C)(O)C1Cc2cc(/C=C3\OC(=O)C(c4cc5c(cc4O)OC(C)(C)C(O)C5)=C3O)ccc2O1` (stereo not given), for which the inhibition result in experiment [1] and in experiment [3] was “Active” in each case. Further, in experiment [4], the Activity result was “Dde”. Moreover, the result in experiment [5] and in experiment [6] was Active. The IC50 in experiment [2] came to 0.7 µM.
Turning to `CC(C)=CCc1cc(/C=C2\OC(=O)C(c3cc(CCC(C)(C)O)c(O)cc3O)=C2O)ccc1O`, the inhibition result in experiment [1] and in experiment [3] was “Active” each time. Also, the IC50 in experiment [2] was 3.3 µM.
In the case of `CC1(C)Oc2ccc(/C=C3\OC(=O)C(c4cc5c(cc4O)OC(C)(C)C(O)C5)=C3O)cc2CC1O` (stereo not given), the inhibition result in experiment [3] is “Active”.
For the compound `CC(C)=CCc1cc(C2=C(O)/C(=C/c3ccc(O)c(CC(O)C(C)(C)O)c3)OC2=O)c(O)cc1O` (stereo not given), the inhibition result in experiment [1] and in experiment [3] was “Active” in each case. Besides, in experiment [2], the IC50 is 7.4 µM.
For `CC(C)(O)C(O)Cc1cc(/C=C2\OC(=O)C(c3cc4c(cc3O)OC(C)(C)C(O)C4)=C2O)ccc1O` (stereo not given), in experiment [3], the inhibition entry is “Active”.
As to `CC(C)=CCc1cc(C2=C(O)/C(=C/c3ccc(O)c(CCC(C)(C)O)c3)OC2=O)c(O)cc1O`, the inhibition entry in experiment [1] and in experiment [3] was “Active” each time. For the same compound, the IC50 in experiment [2] was 3.1 µM.
Turning to `CC(C)=CCc1cc(C2=C(O)/C(=C/c3ccc4c(c3)CC(O)C(C)(C)O4)OC2=O)c(O)cc1O` (stereo not given), the inhibition result in experiment [1] and in experiment [3] was “Active” each time. The IC50 in experiment [2] amounted to 2.8 µM.
For the compound `CC(C)=CCc1cc(/C=C2\OC(=O)C(c3cc4c(cc3O)OC(C)(C)C(O)C4)=C2O)ccc1O` (stereo not given), the inhibition entry in experiment [1] and in experiment [3] was “Active” throughout. Further, the IC50 in experiment [2] was 4.2 µM.

For the origin of these results see ChEMBL document CHEMBL5120789, “Aspulvins A-H, Aspulvinone Analogues with SARS-CoV-2 Mpro Inhibitory and Anti-inflammatory Activities from an Endophytic Cladosporium sp” (J Nat Prod, 2022).
